Experimental findings from PubChem BioAssay (NCI) are described below.

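Growth conditions: 96-well plates. Treatment: test compound, 48 hours, 5 concentrations. Analysis: linear interpolation between bracketing concentrations; unreached endpoints set to highest concentration. GI50: concentration for 50% inhibition of growth. TGI: total growth inhibition.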 Some results are limits rather than exact numbers.

Holding throughout (assay): NCI anticancer screen, dose series, 48 h
Experiment [1] deals with T-47D breast.
In experiment [2] the test system is SF-539 CNS.
Experiment [3] relates to MALME-3M melanoma.
In experiment [4] the test system is MDA-MB-231 breast.
Experiment [5] relates to M14 melanoma.
In experiment [6] the test system is SF-295 CNS.
Experiment [7] deals with OVCAR-3 ovarian.
Experiment [8] deals with NCI-H226 lung.
Experiment [9] relates to RPMI-8226 leukemia.
Experiment [10] has as its system HT29 colon.

Take `O=C1Cc2c(-c3ccccc3)cc(-c3ccc(Cl)cc3)nc2-c2ccccc2N1`: the TGI in experiment [1] was 17.8 µM; in experiment [2], 19.8 µM; in [3], more than 34.4 µM; in experiment [4] it was 19.2 µM; in experiment [5], more than 70.4 µM; in experiment [6], 23.7 µM. The TGI in experiment [7] was 22.8 µM; in [8], 22 µM; in experiment [9], more than 100 µM; in [10], more than 46.8 µM.

`COc1ccc2c(C=O)c3n(c(=O)c2c1OC)CCc1cc2c(cc1-3)OCO2`: the TGI in experiment [1], in experiment [2], in experiment [3], in experiment [4], in experiment [5] and in experiment [6] was more than 100 µM each time. The TGI was more than 100 µM in [7], more than 100 µM in experiment [8], 30.5 µM in experiment [9] and more than 100 µM in experiment [10].

As to `CCCCSC1=N/C(=C\c2ccccc2O)C(Cl)=N1`, the TGI in [1], in experiment [2], in [3], in [4], in [5] and in experiment [6] was more than 100 µM in each case. For the same compound, the TGI in experiment [7], in [8], in [9] and in experiment [10] was more than 100 µM in each case.

`CC(=O)OC/C=C/Cn1nc(Br)c(=O)[nH]c1=O`: the TGI in experiment [1], in [2], in [3], in experiment [4], in experiment [5] and in [6] was more than 100 µM throughout. Further, the TGI in experiment [7], in experiment [8], in experiment [9] and in [10] was more than 100 µM throughout.

`O=C(CCc1ccccc1)NCCc1ccc(O)c(O)c1`: the TGI in [1] is more than 100 µM; in experiment [2] it was more than 87.5 µM; in [3] it was more than 100 µM; in [4], more than 72.3 µM; in experiment [5], more than 100 µM; in experiment [6], more than 94.9 µM. Also, the TGI is more than 89 µM in experiment [7], more than 100 µM in experiment [8], 59.4 µM in experiment [9] and more than 69.3 µM in experiment [10].

`CC(=O)OC1C(C)OC(OC2C[C@](O)(C(C)=O)Cc3c(O)c4c(c(O)c32)C(=O)c2ccccc2C4=O)C(F)C1OC(C)=O` (stereo not given in full): the TGI is 41.2 µM in experiment [1]; 1.03 µM in experiment [2]; 4.08 µM in experiment [3]; 10.7 µM in experiment [4]; 10.7 µM in experiment [5]; 1.47 µM in experiment [6]. Further, the TGI in [7] was 9.9 µM; in experiment [8], 2.86 µM; in [9] it was 2.14 µM; in [10] it was more than 100 µM.

Consider `COc1c(-c2nc3nc(N4CCN(C)CC4)ccc3[nH]2)cc(OC)c2c1nc(CCl)n2C`, for which the TGI in experiment [1] was 38.9 µM; in [2], 20.7 µM; in experiment [3], 37.5 µM; in [4] it was 46.1 µM; in [5], 33.7 µM; in [6] it was more than 100 µM. The TGI in experiment [7] is 81.5 µM; in experiment [8], 66.1 µM; in experiment [9], 43.1 µM; in [10] it was 32.9 µM.

As for `COc1cc(CC2C(=O)OCC2Cc2ccc(OC)c(OC)c2)ccc1O` (stereo not given), the TGI in experiment [1], in experiment [2], in experiment [3], in experiment [4], in experiment [5] and in [6] was more than 100 µM throughout. Also, the TGI in experiment [7], in [8], in experiment [9] and in experiment [10] was more than 100 µM each time.

For `N#Cc1c2c(c(Nc3ccc(Cl)cc3)n3c1nc1ccccc13)CCCC2`, the TGI in experiment [1], in experiment [2], in [3], in experiment [4], in [5] and in experiment [6] was more than 100 µM in each case. Moreover, the TGI in experiment [7] is more than 100 µM; in experiment [8] it was more than 100 µM; in experiment [9], 36.1 µM; in [10], more than 100 µM.

With `O=C(Cn1c(-c2ccccc2)cc2ccccc21)N1CCOCC1`, the TGI in experiment [1], in [2], in experiment [3], in [4], in [5] and in experiment [6] was more than 100 µM each time. In addition, the TGI in [7], in experiment [8], in [9] and in experiment [10] was more than 100 µM throughout.

In the case of `CCCSC1=N/C(=C\c2ccco2)C(=O)N1`, the TGI in experiment [1], in experiment [2], in [3], in experiment [4], in [5] and in experiment [6] was more than 100 µM each time. The TGI in experiment [7], in experiment [8], in [9] and in experiment [10] was more than 100 µM each time.

As for `CO[C@@H](c1ccccc1)[C@H](O)[C@@](O)(c1ccccc1)P(=O)(OC)OC`, the TGI in [1], in experiment [2], in experiment [3], in experiment [4], in [5] and in experiment [6] was more than 100 µM each time. Further, the TGI in experiment [7], in experiment [8], in experiment [9] and in experiment [10] was more than 100 µM each time.

On to `CNc1nc(OC)c2c(n1)[n+](C)cn2C`, for which the TGI in experiment [1], in [2], in [3], in [4], in experiment [5] and in experiment [6] was more than 100 µM in each case. Besides, the TGI in experiment [7], in experiment [8], in experiment [9] and in experiment [10] was more than 100 µM throughout.

As for `N#Cc1c(N)n(-c2nc3ccccc3s2)c(=O)c2cc([N+](=O)[O-])ccc12`, the TGI in experiment [1] is more than 100 µM; in experiment [2], 28 µM; in experiment [3] it was 36.7 µM; in experiment [4], 50.5 µM; in [5], more than 55 µM; in experiment [6], more than 64.9 µM. Besides, the TGI in [7] was 51.9 µM; in experiment [8], 52.6 µM; in experiment [9], more than 100 µM; in [10], 14.3 µM.

As to `FC(F)(Sc1nc2ccccc2[nH]1)c1nc2ccccc2o1`, the TGI in experiment [1], in experiment [2], in [3], in experiment [4], in experiment [5] and in experiment [6] was more than 100 µM each time. Besides, the TGI in experiment [7], in experiment [8], in [9] and in experiment [10] was more than 100 µM in each case.

Turning to `CCCCCCCCCCCCCCCC(=O)OCC(COP(=O)(O)OCCNC(=O)CCSSc1ccccn1)OC(=O)CCCCCCCCCCCCCCC` (stereo not given), the TGI in experiment [1], in [2], in experiment [3], in experiment [4], in [5] and in experiment [6] was more than 100 µM throughout. Moreover, the TGI in experiment [7], in [8], in experiment [9] and in experiment [10] was more than 100 µM throughout.

As for `CCCCCNC(=O)OC1CCn2c1nc1c2C(=O)C(C)=C(N2CC2)C1=O` (stereo not given), the TGI amounted to 7.16 µM in [1]; 5.33 µM in experiment [2]; 4.27 µM in experiment [3]; 5.31 µM in experiment [4]; 4.04 µM in experiment [5]; 2.69 µM in [6]. Besides, the TGI is 7.05 µM in experiment [7], 4.26 µM in experiment [8], more than 100 µM in [9] and 2.77 µM in experiment [10].

With `C/C(=C\CNc1ncnc2c1ncn2CCC#N)CO`, the TGI in experiment [1], in experiment [2], in experiment [3], in experiment [4], in experiment [5] and in experiment [6] was more than 100 µM throughout. For the same compound, the TGI in experiment [7], in experiment [8], in experiment [9] and in experiment [10] was more than 100 µM in each case.

With `O=C1Cc2c([nH]c3c(Br)cccc23)-c2ccccc2N1`, the TGI in [1], in [2], in experiment [3], in [4], in experiment [5] and in experiment [6] was more than 100 µM throughout. The TGI in [7], in [8], in [9] and in experiment [10] was more than 100 µM in each case.

Take `CCOC(=O)C1(NC(=O)OC(C)(C)C)CCc2[nH]oc(=O)c2C1` (stereo not given): the TGI in experiment [1], in experiment [2], in experiment [3], in experiment [4], in [5] and in [6] was more than 100 µM each time. The TGI in experiment [7], in experiment [8], in [9] and in [10] was more than 100 µM in each case.

Consider `Cc1cc(N(CCCl)CCCl)ccc1/C=N\NC(=O)c1cccnc1`, for which the GI50 in experiment [1] was 6.41 µM; in experiment [2] it was 13.9 µM; in [3], 26.2 µM; in experiment [4] it was 29.3 µM; in [5] it was 34.4 µM; in experiment [6], 4.17 µM. Also, the GI50 in experiment [7] is 23.1 µM; in [8], 1.11 µM; in [9], 20.1 µM; in experiment [10], 30.3 µM. Moreover, the TGI was 50.2 µM in experiment [1]; more than 100 µM in [2]; 83.7 µM in experiment [3]; more than 100 µM in experiment [4]; more than 100 µM in experiment [5]; 28.3 µM in experiment [6]. In addition, the TGI in [7] was 79.3 µM; in experiment [8], 2.8 µM; in experiment [9], 59 µM; in [10], more than 100 µM.

Consider `COc1ccc(OC)c2c(Nc3ccc(S(=O)(=O)O)c4cc(S(=O)(=O)O)cc(S(=O)(=O)O)c34)cc(C)nc12`, for which the TGI in experiment [1], in experiment [2], in experiment [3], in [4], in experiment [5] and in experiment [6] was more than 100 µM in each case. For the same compound, the TGI in [7], in [8], in experiment [9] and in [10] was more than 100 µM each time.

With `Cc1cc(NS(=O)(=O)c2ccc(NC(NC(=O)OC(C)C)(C(F)(F)F)C(F)(F)F)cc2)nc(C)n1`, the TGI in experiment [1], in [2], in experiment [3], in experiment [4], in experiment [5] and in [6] was more than 100 µM in each case. For the same compound, the TGI in experiment [7], in [8], in [9] and in experiment [10] was more than 100 µM throughout.

On to `Nc1nc(N)c2ncn(Cc3ccccc3)c2n1`, for which the TGI in experiment [1], in experiment [2], in experiment [3], in experiment [4], in experiment [5] and in experiment [6] was more than 100 µM throughout. In addition, the TGI in experiment [7], in [8], in experiment [9] and in experiment [10] was more than 100 µM throughout.

As to `Cc1nnc(N)s/c1=N/O`, the TGI in [1], in experiment [2], in [3], in experiment [4], in experiment [5] and in [6] was more than 100 µM throughout. Also, the TGI in experiment [7], in [8], in [9] and in experiment [10] was more than 100 µM each time.
